In BindingDB's records for patent US12037345 (Taiho Pharmaceutical, 2024):

Target: T1, Tyrosine-protein phosphatase non-receptor type 11 (Homo sapiens, UniProt Q06124)
T1 sequence (Q06124 whole entry): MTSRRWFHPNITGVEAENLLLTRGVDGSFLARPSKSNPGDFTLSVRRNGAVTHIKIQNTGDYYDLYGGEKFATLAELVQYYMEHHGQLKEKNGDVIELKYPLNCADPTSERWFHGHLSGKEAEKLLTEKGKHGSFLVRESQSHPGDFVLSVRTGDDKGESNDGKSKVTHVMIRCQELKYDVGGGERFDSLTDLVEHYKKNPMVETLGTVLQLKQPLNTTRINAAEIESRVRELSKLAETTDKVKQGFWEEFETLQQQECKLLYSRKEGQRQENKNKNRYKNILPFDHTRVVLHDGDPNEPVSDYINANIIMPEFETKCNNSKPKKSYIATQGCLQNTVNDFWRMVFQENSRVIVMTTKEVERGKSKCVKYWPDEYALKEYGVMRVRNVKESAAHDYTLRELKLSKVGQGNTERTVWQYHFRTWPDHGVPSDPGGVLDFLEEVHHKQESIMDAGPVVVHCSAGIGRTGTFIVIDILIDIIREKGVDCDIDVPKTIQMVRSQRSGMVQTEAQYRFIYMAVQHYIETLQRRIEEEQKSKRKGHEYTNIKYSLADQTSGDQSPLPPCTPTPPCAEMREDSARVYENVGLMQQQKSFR
Assay: SHP2 Biochemical Assay
Protocol: SHP2 activity was monitored by measuring the conversion of the surrogate substrate 6,8-difluoromethylumbelliferyl phosphate (DiFMUP) to the fluorescent product, 6,8-difluoromethylumbelliferone (DiFMU).SHP2 was pre-incubated with test compounds and the activating peptide pIRS1 (H2N-LN(pY)IDLDLV-(PEG)8-LST(pY)ASINFQK-amide) for 30 min, prior to addition of the 6,8-difluoromethylumbelliferyl phosphate (DiFMUP), (Thermo Fisher D6567). Final assay concentrations were 10 pM SHP2, […] pIRS1 peptide, 50 μM DiFMUP, 25 mM Bis-Tris propane, pH 7.0, 150 mM NaCl, 0.05% (v/v) Tween-20, 0.5 mM TCEP and 5% (v/v) DMSO. Rates of reaction were then measured over 30 min by monitoring fluorescence on a BMG Pherastar reader at excitation 360 nm/emission 450 nm. IC50 values were calculated in singlicate from the normalized dose-response plots using four parameter logistic curve fit. The Experiment for each compound was carried out in one time or multiple times, and the IC50 values were shown as a single value (for a compound measured in a single experiment) or an average value (for a compound measured in multiple experiments).

With `Cn1c(N2[C@H]3CC[C@@H]2[C@H](N)C3)nc2[nH]cc(-c3ccc4ncsc4c3Cl)c2c1=O` [US12037345, Example 101] the IC50 was 1.5 nM.
